Key:
Assay in all cases: KINOMEscan competition binding
Settings in all cases: compound 10.0 µM
DAPK1 (human) = DAPK1 (human) (UniProt P53355)
CSNK2A2 (human) = CSNK2A2 (human) (UniProt P19784)
MAST1 (human) = MAST1 (human) (UniProt Q9Y2H9)
CDKL2 (human) = CDKL2 (human) (UniProt Q92772)
DDR2 (human) = DDR2 (human) (UniProt Q16832)
PIK3C2B (human) = PIK3C2B (human) (UniProt O00750)
RPS6KA6 KD1 (human) = RPS6KA6 KD1 (human) (UniProt Q9UK32)
EPHB2 (human) = EPHB2 (human) (UniProt P29323)
CAMKK2 (human) = CAMKK2 (human) (UniProt Q96RR4)
CAMKK2 (human), sequence (Q96RR4 whole entry, looked up): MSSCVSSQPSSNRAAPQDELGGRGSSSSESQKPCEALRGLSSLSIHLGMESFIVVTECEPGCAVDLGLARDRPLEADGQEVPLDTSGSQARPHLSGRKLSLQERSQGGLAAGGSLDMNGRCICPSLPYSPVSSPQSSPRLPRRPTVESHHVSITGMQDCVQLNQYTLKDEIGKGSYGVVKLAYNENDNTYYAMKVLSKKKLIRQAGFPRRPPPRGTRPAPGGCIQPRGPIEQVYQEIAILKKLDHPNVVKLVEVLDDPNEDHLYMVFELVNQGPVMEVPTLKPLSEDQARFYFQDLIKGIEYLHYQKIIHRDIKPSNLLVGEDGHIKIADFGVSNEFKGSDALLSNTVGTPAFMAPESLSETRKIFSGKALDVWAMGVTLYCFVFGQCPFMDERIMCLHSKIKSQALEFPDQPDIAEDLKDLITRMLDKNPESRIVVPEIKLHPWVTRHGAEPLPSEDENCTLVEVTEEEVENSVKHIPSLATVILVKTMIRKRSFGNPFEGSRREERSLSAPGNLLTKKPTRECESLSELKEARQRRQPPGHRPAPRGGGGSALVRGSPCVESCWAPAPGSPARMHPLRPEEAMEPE

EPHB4 (human) = EPHB4 (human) (UniProt P54760)
EPHA4 (human) = EPHA4 (human) (UniProt P54764)
ADCK3 (human) = ADCK3 (human) (UniProt Q8NI60)
STK36 (human) = STK36 (human) (UniProt Q9NRP7)
YSK4 (human) = YSK4 (human) (UniProt Q56UN5)
YSK4 (human), sequence (Q56UN5 whole entry, looked up): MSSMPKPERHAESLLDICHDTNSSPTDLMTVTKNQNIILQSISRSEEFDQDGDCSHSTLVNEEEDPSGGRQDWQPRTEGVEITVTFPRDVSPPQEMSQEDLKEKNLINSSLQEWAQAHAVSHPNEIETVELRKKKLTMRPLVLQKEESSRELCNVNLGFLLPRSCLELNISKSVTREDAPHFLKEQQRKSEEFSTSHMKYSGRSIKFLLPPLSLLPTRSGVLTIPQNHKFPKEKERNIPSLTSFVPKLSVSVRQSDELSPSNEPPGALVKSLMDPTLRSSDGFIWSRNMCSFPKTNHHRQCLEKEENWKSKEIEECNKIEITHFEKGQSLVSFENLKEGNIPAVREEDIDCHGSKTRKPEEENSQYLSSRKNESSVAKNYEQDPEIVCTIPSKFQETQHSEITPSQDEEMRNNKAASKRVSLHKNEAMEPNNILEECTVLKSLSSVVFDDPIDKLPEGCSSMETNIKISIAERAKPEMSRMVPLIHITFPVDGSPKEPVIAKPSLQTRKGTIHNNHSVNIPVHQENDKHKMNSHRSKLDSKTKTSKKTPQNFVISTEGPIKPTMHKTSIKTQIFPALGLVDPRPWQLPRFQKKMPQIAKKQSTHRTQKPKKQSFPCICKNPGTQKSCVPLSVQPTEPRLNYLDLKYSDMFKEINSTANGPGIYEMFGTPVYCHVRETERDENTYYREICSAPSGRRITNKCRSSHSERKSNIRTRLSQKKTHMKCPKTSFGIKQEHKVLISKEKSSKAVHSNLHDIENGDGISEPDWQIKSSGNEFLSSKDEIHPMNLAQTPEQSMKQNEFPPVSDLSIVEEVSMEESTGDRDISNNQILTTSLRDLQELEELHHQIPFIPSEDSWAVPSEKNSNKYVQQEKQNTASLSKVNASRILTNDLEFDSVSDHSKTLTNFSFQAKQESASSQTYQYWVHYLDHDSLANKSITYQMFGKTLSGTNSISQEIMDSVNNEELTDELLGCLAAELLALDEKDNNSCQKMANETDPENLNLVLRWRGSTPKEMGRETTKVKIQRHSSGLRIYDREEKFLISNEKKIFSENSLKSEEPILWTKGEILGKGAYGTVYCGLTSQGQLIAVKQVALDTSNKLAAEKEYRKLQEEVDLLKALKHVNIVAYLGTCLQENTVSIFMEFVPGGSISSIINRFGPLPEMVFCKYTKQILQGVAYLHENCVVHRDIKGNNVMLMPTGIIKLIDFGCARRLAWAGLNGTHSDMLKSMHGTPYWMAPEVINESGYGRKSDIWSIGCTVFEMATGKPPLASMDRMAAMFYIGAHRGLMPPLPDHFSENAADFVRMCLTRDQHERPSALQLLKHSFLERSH

MAP2K4 (human) = MAP2K4 (human) (UniProt P45985)
PRKACA (human) = PRKACA (human) (UniProt P17612)
FGFR4 (human) = FGFR4 (human) (UniProt P22455)
PRPF4B (human) = PRPF4B (human) (UniProt Q13523)
EPHA3 (human) = EPHA3 (human) (UniProt P29320)
PRKCH (human) = PRKCH (human) (UniProt P24723)
PRKCH (human), sequence (P24723 whole entry, looked up): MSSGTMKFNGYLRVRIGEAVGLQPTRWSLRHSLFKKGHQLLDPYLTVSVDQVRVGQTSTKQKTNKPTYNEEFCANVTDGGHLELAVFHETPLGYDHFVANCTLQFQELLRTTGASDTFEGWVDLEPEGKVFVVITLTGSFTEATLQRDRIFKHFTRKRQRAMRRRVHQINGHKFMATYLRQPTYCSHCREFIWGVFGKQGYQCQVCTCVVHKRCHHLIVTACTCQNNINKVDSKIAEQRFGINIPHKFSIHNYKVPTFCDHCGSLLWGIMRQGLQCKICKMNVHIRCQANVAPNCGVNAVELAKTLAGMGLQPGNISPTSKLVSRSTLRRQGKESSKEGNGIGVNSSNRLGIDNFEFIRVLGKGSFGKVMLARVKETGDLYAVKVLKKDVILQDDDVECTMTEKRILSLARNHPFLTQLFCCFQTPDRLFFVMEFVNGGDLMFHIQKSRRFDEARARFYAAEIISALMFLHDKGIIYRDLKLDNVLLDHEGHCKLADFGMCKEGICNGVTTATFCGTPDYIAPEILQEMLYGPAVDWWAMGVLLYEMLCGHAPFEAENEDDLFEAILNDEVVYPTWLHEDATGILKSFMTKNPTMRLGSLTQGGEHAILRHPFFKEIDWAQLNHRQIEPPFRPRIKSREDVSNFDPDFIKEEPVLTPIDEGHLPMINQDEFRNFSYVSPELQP

ANKK1 (human) = ANKK1 (human) (UniProt Q8NFD2)
ANKK1 (human), sequence (Q8NFD2 whole entry, looked up): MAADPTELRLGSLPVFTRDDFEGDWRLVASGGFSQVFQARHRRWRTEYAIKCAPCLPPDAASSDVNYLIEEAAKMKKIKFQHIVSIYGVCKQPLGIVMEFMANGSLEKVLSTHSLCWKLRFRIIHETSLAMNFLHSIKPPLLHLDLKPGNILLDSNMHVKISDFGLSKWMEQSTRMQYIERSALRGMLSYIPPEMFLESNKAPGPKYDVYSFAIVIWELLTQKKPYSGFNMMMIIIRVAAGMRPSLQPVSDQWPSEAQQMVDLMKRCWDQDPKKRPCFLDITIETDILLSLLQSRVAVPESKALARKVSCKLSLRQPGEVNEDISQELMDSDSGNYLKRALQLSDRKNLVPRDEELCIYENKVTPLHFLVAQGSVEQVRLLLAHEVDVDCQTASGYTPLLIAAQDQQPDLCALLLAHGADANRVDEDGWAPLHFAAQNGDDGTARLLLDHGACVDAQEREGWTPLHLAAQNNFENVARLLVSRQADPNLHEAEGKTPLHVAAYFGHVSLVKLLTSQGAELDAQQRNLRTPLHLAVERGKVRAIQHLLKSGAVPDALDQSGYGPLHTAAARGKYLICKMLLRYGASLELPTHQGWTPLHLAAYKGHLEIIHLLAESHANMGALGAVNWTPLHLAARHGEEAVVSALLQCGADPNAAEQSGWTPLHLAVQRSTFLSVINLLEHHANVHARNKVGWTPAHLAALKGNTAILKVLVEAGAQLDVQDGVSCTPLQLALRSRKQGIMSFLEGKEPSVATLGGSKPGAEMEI

MAP3K6 (human) = MAP3K6 (human) (UniProt O95382)
NEK7 (human) = NEK7 (human) (UniProt Q8TDX7)
NEK7 (human), sequence (Q8TDX7 whole entry, looked up): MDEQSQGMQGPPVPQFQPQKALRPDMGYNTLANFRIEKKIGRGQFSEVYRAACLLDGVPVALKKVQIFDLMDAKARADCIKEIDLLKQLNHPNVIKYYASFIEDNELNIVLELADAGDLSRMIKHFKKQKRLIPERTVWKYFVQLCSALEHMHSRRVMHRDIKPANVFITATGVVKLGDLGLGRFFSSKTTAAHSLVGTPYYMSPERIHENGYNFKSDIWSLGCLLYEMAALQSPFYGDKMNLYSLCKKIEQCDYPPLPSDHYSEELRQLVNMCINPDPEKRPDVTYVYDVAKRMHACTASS

CSNK1G1 (human) = CSNK1G1 (human) (UniProt Q9HCP0)
CLK4 (human) = CLK4 (human) (UniProt Q9HAZ1)
CPK1 (P.falciparum) = test system: CPK1 (P.falciparum)
CAMK2B (human) = CAMK2B (human) (UniProt Q13554)
MAP2K7 (human) = MAP2K7 (human) (UniProt O14733)
SYK (human) = SYK (human) (UniProt P43405)
STK3 (human) = STK3 (human) (UniProt Q13188)
AKT1 (human) = AKT1 (human) (UniProt P31749)
MAP3K11 (human) = MAP3K11 (human) (UniProt Q16584)
RET (human) = RET (human) (UniProt P07949)
PKMYT1 (human) = PKMYT1 (human) (UniProt Q99640)
MERTK (human) = MERTK (human) (UniProt Q12866)
MERTK (human), sequence (Q12866 whole entry, looked up): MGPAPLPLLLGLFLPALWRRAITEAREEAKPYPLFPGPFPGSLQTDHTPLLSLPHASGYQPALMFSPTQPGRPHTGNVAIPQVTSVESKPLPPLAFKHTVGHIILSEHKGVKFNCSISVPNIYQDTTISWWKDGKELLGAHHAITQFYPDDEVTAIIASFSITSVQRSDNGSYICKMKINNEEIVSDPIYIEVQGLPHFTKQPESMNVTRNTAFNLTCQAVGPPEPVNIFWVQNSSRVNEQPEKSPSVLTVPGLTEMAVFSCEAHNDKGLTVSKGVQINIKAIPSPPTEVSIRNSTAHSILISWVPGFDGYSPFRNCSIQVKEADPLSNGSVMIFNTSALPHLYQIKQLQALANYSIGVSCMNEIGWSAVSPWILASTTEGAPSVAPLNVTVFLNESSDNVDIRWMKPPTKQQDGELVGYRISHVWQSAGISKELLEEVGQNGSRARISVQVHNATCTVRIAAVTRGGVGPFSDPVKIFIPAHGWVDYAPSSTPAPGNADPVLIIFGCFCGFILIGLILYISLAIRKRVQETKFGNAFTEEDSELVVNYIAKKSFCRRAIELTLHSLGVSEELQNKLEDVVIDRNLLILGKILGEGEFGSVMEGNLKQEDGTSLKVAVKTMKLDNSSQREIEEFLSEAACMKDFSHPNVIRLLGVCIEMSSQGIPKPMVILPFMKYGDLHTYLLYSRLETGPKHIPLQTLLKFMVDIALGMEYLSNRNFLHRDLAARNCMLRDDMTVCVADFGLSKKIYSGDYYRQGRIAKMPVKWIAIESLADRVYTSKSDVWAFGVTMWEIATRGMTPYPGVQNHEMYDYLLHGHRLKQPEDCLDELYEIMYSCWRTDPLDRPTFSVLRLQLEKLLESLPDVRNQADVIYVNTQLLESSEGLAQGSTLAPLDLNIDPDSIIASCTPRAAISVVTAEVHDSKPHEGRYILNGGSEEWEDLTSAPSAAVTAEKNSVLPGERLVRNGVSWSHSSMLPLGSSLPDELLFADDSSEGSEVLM

MAPK13 (human) = MAPK13 (human) (UniProt O15264)
MAPK13 (human), sequence (O15264 whole entry, looked up): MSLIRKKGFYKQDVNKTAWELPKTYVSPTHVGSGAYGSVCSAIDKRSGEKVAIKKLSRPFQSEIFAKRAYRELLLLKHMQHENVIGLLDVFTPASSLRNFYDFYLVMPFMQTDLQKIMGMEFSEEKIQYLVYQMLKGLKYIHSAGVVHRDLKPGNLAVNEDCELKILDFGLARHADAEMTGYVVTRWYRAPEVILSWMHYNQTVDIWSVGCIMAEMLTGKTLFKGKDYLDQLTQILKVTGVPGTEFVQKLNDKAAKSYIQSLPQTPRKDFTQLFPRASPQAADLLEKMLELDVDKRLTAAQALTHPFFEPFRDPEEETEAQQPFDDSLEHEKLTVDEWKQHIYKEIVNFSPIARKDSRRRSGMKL

CASK (human) = CASK (human) (UniProt O14936)
CDK17 (human) = CDK17 (human) (UniProt Q00537)
MKNK2 (human) = MKNK2 (human) (UniProt Q9HBH9)

| Structure (SMILES) | kinase still bound, per cent of control (DAPK1 (human)) [%] | kinase still bound, per cent of control (CSNK2A2 (human)) [%] | kinase still bound, per cent of control (MAST1 (human)) [%] | kinase still bound, per cent of control (CDKL2 (human)) [%] | kinase still bound, per cent of control (DDR2 (human)) [%] | kinase still bound, per cent of control (PIK3C2B (human)) [%] | kinase still bound, per cent of control (RPS6KA6 KD1 (human)) [%] | kinase still bound, per cent of control (EPHB2 (human)) [%] | kinase still bound, per cent of control (CAMKK2 (human)) [%] | kinase still bound, per cent of control (EPHB4 (human)) [%] | kinase still bound, per cent of control (EPHA4 (human)) [%] | kinase still bound, per cent of control (ADCK3 (human)) [%] | kinase still bound, per cent of control (STK36 (human)) [%] | kinase still bound, per cent of control (YSK4 (human)) [%] | kinase still bound, per cent of control (MAP2K4 (human)) [%] | kinase still bound, per cent of control (PRKACA (human)) [%] | kinase still bound, per cent of control (FGFR4 (human)) [%] | kinase still bound, per cent of control (PRPF4B (human)) [%] | kinase still bound, per cent of control (EPHA3 (human)) [%] | kinase still bound, per cent of control (PRKCH (human)) [%] | further results |
| --- | --- | --- | --- | --- | --- | --- | --- | --- | --- | --- | --- | --- | --- | --- | --- | --- | --- | --- | --- | --- | --- |
| Nc1ccc(-c2ccc3ncc4ccc(=O)n(-c5cccc(C(F)(F)F)c5)c4c3c2)cn1 | 91 | 48 | 100 | 91 | 99 | 37 | 80 | 98 | 99 | 100 | 100 | 88 | 99 | 37 | 44 | 100 | 100 | 100 | 86 | 99 | kinase still bound, per cent of control (ANKK1 (human)): 100%; kinase still bound, per cent of control (MAP3K6 (human)): 100%; kinase still bound, per cent of control (NEK7 (human)): 82%; kinase still bound, per cent of control (CSNK1G1 (human)): 100%; kinase still bound, per cent of control (CLK4 (human)): 34%; kinase still bound, per cent of control (CPK1 (P.falciparum)): 52%; kinase still bound, per cent of control (CAMK2B (human)): 100%; kinase still bound, per cent of control (MAP2K7 (human)): 100%; kinase still bound, per cent of control (SYK (human)): 100%; kinase still bound, per cent of control (STK3 (human)): 63%; kinase still bound, per cent of control (AKT1 (human)): 100%; kinase still bound, per cent of control (MAP3K11 (human)): 96%; kinase still bound, per cent of control (RET (human)): 100%; kinase still bound, per cent of control (PKMYT1 (human)): 94%; kinase still bound, per cent of control (MERTK (human)): 87%; kinase still bound, per cent of control (MAPK13 (human)): 48%; kinase still bound, per cent of control (CASK (human)): 67%; kinase still bound, per cent of control (CDK17 (human)): 98% |
| CCC(=O)N1CCN(c2ccc(-n3c(=O)ccc4cnc5ccc(-c6cnc7ccccc7c6)cc5c43)cc2C(F)(F)F)CC1 | 96 | 11 | 93 | 58 | 100 | 25 | 66 | 100 | 85 | 85 | 90 | 17 | 17 | 38 | 30 | 79 | 21 | 100 | 70 | 92 | kinase still bound, per cent of control (ANKK1 (human)): 93%; kinase still bound, per cent of control (MAP3K6 (human)): 100%; kinase still bound, per cent of control (NEK7 (human)): 90%; kinase still bound, per cent of control (CSNK1G1 (human)): 100%; kinase still bound, per cent of control (CLK4 (human)): 49%; kinase still bound, per cent of control (CPK1 (P.falciparum)): 36%; kinase still bound, per cent of control (CAMK2B (human)): 100%; kinase still bound, per cent of control (MAP2K7 (human)): 100%; kinase still bound, per cent of control (SYK (human)): 78%; kinase still bound, per cent of control (STK3 (human)): 24%; kinase still bound, per cent of control (AKT1 (human)): 91%; kinase still bound, per cent of control (MAP3K11 (human)): 69%; kinase still bound, per cent of control (RET (human)): 44%; kinase still bound, per cent of control (PKMYT1 (human)): 52%; kinase still bound, per cent of control (MERTK (human)): 53%; kinase still bound, per cent of control (MAPK13 (human)): 39%; kinase still bound, per cent of control (MKNK2 (human)): 54%; kinase still bound, per cent of control (CASK (human)): 100%; kinase still bound, per cent of control (CDK17 (human)): 97% |
| COc1cc(C(=O)NC2CCN(C)CC2)ccc1Nc1ncc2c(n1)N(C1CCCC1)CCC(=O)N2C(C)C | 100 | 100 | 100 | 100 | 100 | 100 | 100 | 100 | 100 | 100 | 100 | 100 | 100 | 100 | 100 | 100 | 100 | 100 | 100 | 100 | kinase still bound, per cent of control (ANKK1 (human)): 100%; kinase still bound, per cent of control (MAP3K6 (human)): 100%; kinase still bound, per cent of control (NEK7 (human)): 100%; kinase still bound, per cent of control (CSNK1G1 (human)): 100%; kinase still bound, per cent of control (CLK4 (human)): 100%; kinase still bound, per cent of control (CAMK2B (human)): 100%; kinase still bound, per cent of control (SYK (human)): 100%; kinase still bound, per cent of control (STK3 (human)): 100%; kinase still bound, per cent of control (AKT1 (human)): 100%; kinase still bound, per cent of control (MAP3K11 (human)): 100%; kinase still bound, per cent of control (RET (human)): 100%; kinase still bound, per cent of control (PKMYT1 (human)): 100%; kinase still bound, per cent of control (MERTK (human)): 34%; kinase still bound, per cent of control (MAPK13 (human)): 100%; kinase still bound, per cent of control (MKNK2 (human)): 100%; kinase still bound, per cent of control (CDK17 (human)): 100% |
| OCCCNc1cc(-c2ccnc(Nc3cccc(Cl)c3)n2)ccn1 | 100 | 100 | 100 | 14 | 100 | 100 | 100 | 100 | 100 | 100 | 100 | 100 | 100 | 100 | 100 | 100 | 100 | 100 | 100 | 100 | kinase still bound, per cent of control (ANKK1 (human)): 100%; kinase still bound, per cent of control (MAP3K6 (human)): 100%; kinase still bound, per cent of control (NEK7 (human)): 100%; kinase still bound, per cent of control (CSNK1G1 (human)): 100%; kinase still bound, per cent of control (CLK4 (human)): 14%; kinase still bound, per cent of control (CAMK2B (human)): 100%; kinase still bound, per cent of control (SYK (human)): 100%; kinase still bound, per cent of control (STK3 (human)): 100%; kinase still bound, per cent of control (AKT1 (human)): 100%; kinase still bound, per cent of control (MAP3K11 (human)): 100%; kinase still bound, per cent of control (RET (human)): 100%; kinase still bound, per cent of control (PKMYT1 (human)): 100%; kinase still bound, per cent of control (MERTK (human)): 100%; kinase still bound, per cent of control (MAPK13 (human)): 100%; kinase still bound, per cent of control (MKNK2 (human)): 100%; kinase still bound, per cent of control (CDK17 (human)): 100% |
